The text below walks through data of patent US10828301B2, “2,4-pyrimidinediamine compounds and their uses” (Rigel Pharmaceuticals, Inc, priority 2002, dated 2020).

The test system of one data set is B-cell line BJAB. Kind of data set: BJAB toxicity: Cell Titer Glo assay. The data set is classed as cell-based. To be noted: Homo sapiens, 18 hours. The procedure: Seed 50 μl cells (1×10^6/ml) into each well containing 50 μl compound. The final vehicle concentration is 0.5% DMSO, 1.5% MeOH. Shake plates for 1 minute to mix cells and compound. Incubate plates at 37° C. (5% CO2) for 18 hours. Next day, harvest 50 μl cells from each well, add to 50 μl Cell Titer Glo reagent ([…]). Shake plates for 1 minute. Read on luminometer.

A further data set relates to Jurkat cells. Kind of data set: Jurkat toxicity: Cell Titer Glo assay. The data set is classed as cell-based. To be noted: Homo sapiens, 18 hours. The procedure:
Seed 50 μl cells (1×10^6/ml) into each well containing 50 μl compound. […] Shake plates for 1 minute to mix cells and compound. Incubate plates at 37° C. […] Next day, harvest 50 μl cells from each well, add to 50 μl Cell Titer Glo reagent ([…]). Shake plates for 1 minute. Read on luminometer.

For data set [1], the system named is cultured human mast cells (CHMC). Kind of data set: CHMC high cell density IgE activation: degranulation (hexos, tryptase, histamine), leukotriene (LTC4) and cytokine (TNFalpha, IL-13) assays. Format: cell-based. To be noted: anti-IgE activation. The method in brief: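 IgE-sensitized CHMC at 1-2×10^6 cells/ml in MT buffer were pretreated with compound for 1 h at 37 °C (0.5% DMSO final), then stimulated with anti-IgE for 1 h. Tryptase was measured in 1:500-diluted supernatant. Pellets were re-incubated for 7 h with compound in CM media, and supernatants were assayed by ELISA.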

The test system is the same in data set [2]. Kind of data set: CHMC low cell density IgE activation: tryptase and LTC4 assays. Format: cell-based. To be noted: Homo sapiens, Mast cell, Low Density CHMC, anti-IgE activation, tryptase readout; read-out: CHMC anti-IgE Tryptase. The method in brief:
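Cultured human mast cells at low density (1000-1500 per well) rested 1 h at 37° C, then stimulated with anti-IgE for 30 min at 37° C. Supernatant tryptase measured with fluorogenic substrate (30 min, room temperature); LTC4 quantified by ELISA on diluted supernatant.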

For data set [3] the test system is unchanged. Kind of data set: CHMC low cell density ionomycin activation: tryptase assay. The note with it: Homo sapiens, Mast cell, Low Density CHMC, ionomycin activation, tryptase readout; read-out: CHMC Ionomycin Tryptase. Format: cell-based.
Data set [4] has as its system basophils in whole human peripheral blood. Kind of data set: Basophil ionomycin activation: histamine release assay. To be noted: Homo sapiens. The data set is classed as cell-based. As to the method: Assays for ionomycin-induced basophil cell degranulation were carried out as described for the Basophil IgE or Dustmite Activation Assay (Section 6.4.6, supra), with the exception that following incubation with compound, cells were stimulated with 20 μl of 2 μM ionomycin.

The format of data set [5] is in vivo. The note with it: rat, oral doses of 50, 150 and 300 mg/kg given for 32 days.
Data set [6] is described as follows: Oral bioavailability / pharmacokinetics in rats. Format: in vivo. The note with it: rat, in vivo. The procedure:
Over 50 2,4-pyrimidinediamine compounds of the invention were tested for oral bioavailability. For the study, compounds were dissolved in various vehicles (e.g. PEG 400 solution and CMC suspension) for intravenous and oral dosing in the rats. Following administration of the drug, plasma samples were obtained and extracted. The plasma concentrations of the compounds were determined by high performance liquid chromatography/tandem mass spectrometry (LC/MS/MS) methods. Pharmacokinetic analyses were performed based on the plasma concentration data. The pharmacokinetic parameters of interest include Clearance (CL), Volume of distribution at steady-state (Vss), terminal half-life (t1/2), and oral bioavailability (% F).

For data set [7], the system named is basophils in whole human peripheral blood. Kind of data set: Basophil IgE activation: histamine release assay. The data set is classed as cell-based. To be noted: Homo sapiens, anti-IgE activation. The method in brief:
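Dextran-sedimented whole blood from dust-mite-allergic human donors, resuspended in MT-buffer with 0.5% DMSO and preincubated with 8 compound concentrations in triplicate. Cells stimulated 30 min at 37 °C. Histamine released into the supernatant measured by ELISA.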

Data set [8] can be described thus: in vitro chromosomal aberration assay. The data set is classed as cell-based.
Where [9] appears, read: IL-13, read-out: CHMC high density IL-13.
Setting [10] is: LTC4, read-out: CHMC high density LTC4.
Setting [11] is: TNF-alpha, read-out: CHMC high density TNF-alpha.
[12] abbreviates: hexosaminidase release, read-out: CHMC high density hexos.
[13] abbreviates: histamine release, read-out: CHMC high density histamine.
[14] abbreviates: tryptase release, read-out: CHMC high density tryptase.

Consider `Cc1cc(Nc2ncc(F)c(Nc3cccc(O)c3)n2)cc(Cl)c1O` [Compound R940233, N2-(3-Chloro-4-hydroxy-5-methylphenyl)-5-fluoro-N4-(3-hydroxyphenyl)-2,4-pyrimidinediamine], for which the IC50 in the data set with B-cell line BJAB was greater than 4330 nM; in the data set on Jurkat cells it was greater than 4330 nM; in data set [1] (setting [9]) it was 1780 nM; in [1] (setting [10]) it was 118 nM; in [1] (setting [11]) it was 2250 nM; in data set [1] (setting [12]), 577 nM. Also, the IC50 in data set [1] (setting [13]) is 586 nM; in [1] (setting [14]), 642 nM; in data set [2], 132 nM; in data set [3], greater than 10000 nM.

On to `OCCOc1cccc(Nc2ncc(F)c(Nc3cccc(OCCO)c3)n2)c1` [Compound R935075, N2,N4-Bis[3-(2-hydroxyethoxy)phenyl]-5-fluoro-2,4-pyrimidinediamine], for which the IC50 was greater than 4330 nM with B-cell line BJAB; greater than 4330 nM in the data set with Jurkat cells; less than 220 nM in data set [1] (setting [10]); greater than 2000 nM in [1] (setting [11]); 647 nM in data set [1] (setting [12]); 1210 nM in data set [1] (setting [14]). For the same compound, the IC50 was 930 nM in data set [2] and greater than 10000 nM in [3].

On to `Nc1cccc(Nc2ncc(F)c(Nc3cccc(N)c3)n2)c1` [Compound R921302, N2,N4-Bis(3-aminophenyl)-5-fluoro-2,4-pyrimidinediamine], for which the IC50 in data set [4] is greater than 10000 nM; in data set [1] (setting [9]), 1670 nM; in data set [1] (setting [10]) it was 514 nM; in data set [1] (setting [11]) it was 1170 nM; in [1] (setting [12]), 682 nM; in data set [1] (setting [13]), 1590 nM. The IC50 came to 795 nM in data set [1] (setting [14]) and 190 nM in [7]. In addition, the tolerability entry in data set [5] is given as “well tolerated”. Moreover, in data set [6], the “metabolic stability in pharmacokinetics studies” value is listed as “most metabolically stable compound”. Moreover, the clastogenic potential entry in data set [8] is listed as “not clastogenic”.
